In patent US20030100772A1, “Oxygen-containing heterocyclic compounds” (priority 2000, published 2003):

Assays:
[1] = target: T1, recombinant human PDE IV enzyme (HSPDE4A4B) (Homo sapiens, UniProt P27815); assay: Inhibition test on recombinant human PDE IV enzyme; type: biochemical; details: [3H]cAMP 1 μmol/L substrate, read-out: enzyme inhibitory activity
T1 construct: made in house; host or cells: Sf9 insect cells
Procedure: Inhibition Test on Recombinant Human PDE IV Enzyme
Human phosphodiesterase cDNA (HSPDE4A4B) was isolated from HL-60 cells. The expected amino acid sequence is the same as that (HSPDE4A5) reported by G. Bolger et al. [Mol. Cell Biol. 13, p. 6558 (1993)]. This recombinant protein was expressed in Sf9 insect cells. The PDE activity was determined by the following two step process according to the method by R. L. Kincaid and V. C. Manganiello [Method. Enzymol., 159, pp. 457-470 (1988)]. Using [^3H]cAMP (final concentration: 1 μmol/L) as a substrate, the reaction was conducted in a standard mixture containing N,N-bis(2-hydroxyethyl)-2-aminoethanesulfonic acid (50 mmol/L, pH 7.2), MgCl2 (1 mmol/L) and soybean trypsin inhibitor (0.1 mg/mL). The reaction was started by addition of the enzyme, and the incubation was conducted at 30° C. for 10 to 30 minutes. The reaction was terminated with hydrochloric acid, and the formed 5′-AMP was completely decomposed with […]. After chromatography with DEAE-Sephadex A-25, the eluted [^3H]-adenosine was counted by a scintillation counter. The test compounds were added after dissolved in DMSO (concentration: 1.7%).

T1 sequence (P27815 whole entry): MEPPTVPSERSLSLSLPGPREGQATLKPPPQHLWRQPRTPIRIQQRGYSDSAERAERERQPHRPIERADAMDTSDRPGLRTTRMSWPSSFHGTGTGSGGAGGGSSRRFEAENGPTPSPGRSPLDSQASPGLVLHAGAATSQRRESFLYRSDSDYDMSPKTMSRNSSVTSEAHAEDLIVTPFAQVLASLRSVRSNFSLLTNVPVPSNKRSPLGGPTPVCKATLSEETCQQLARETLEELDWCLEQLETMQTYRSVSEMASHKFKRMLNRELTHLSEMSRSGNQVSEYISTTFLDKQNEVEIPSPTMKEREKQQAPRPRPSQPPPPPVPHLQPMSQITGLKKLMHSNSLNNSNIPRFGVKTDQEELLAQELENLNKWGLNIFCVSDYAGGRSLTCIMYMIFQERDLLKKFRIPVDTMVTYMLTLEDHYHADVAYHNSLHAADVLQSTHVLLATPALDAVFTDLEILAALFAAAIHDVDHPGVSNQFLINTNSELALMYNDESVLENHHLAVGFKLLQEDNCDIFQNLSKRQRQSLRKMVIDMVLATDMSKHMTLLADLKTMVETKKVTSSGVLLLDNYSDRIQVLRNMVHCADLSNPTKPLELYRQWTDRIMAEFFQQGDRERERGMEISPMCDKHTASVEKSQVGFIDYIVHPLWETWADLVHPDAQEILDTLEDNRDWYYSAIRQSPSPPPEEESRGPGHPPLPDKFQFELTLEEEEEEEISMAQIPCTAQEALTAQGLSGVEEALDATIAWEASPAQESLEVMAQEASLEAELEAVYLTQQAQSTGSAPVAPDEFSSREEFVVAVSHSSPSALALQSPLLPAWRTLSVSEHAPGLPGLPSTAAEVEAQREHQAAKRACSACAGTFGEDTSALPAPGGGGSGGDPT

Row | melting point [°C] | inhibition at 10 µM ([1]; drug concentration of 10 μmol/L) [%] | inhibition at 1 µM ([1]; concentration of 1 μmol/L) [%] | Compound
1 | 243 to 244 | – | – | COc1ccc(C2(C3CCCCC3=O)CCC(C(=O)O)CC2)c2c1OCCO2 (single isomer, unassigned) [Compound 9a, 4-(Cyclohexanon-2-yl)-4-(8-methoxy-1,4-benzodioxan-5-yl)-cyclohexanecarboxylic Acid]
2 | 222 to 223 | – | – | COc1ccc(C2(C3CCCCC3=O)CCC(C(=O)O)CC2)c2c1OCCO2 (single isomer, unassigned) [Compound 9b, 4-(Cyclohexanon-2-yl)-4-(8-methoxy-1,4-benzodioxan-5-yl)-cyclohexanecarboxylic Acid]
3 | 241 to 243 | ≥ 30 | – | COc1ccc(C2(C3CCCC3=O)CCC(C(=O)O)CC2)c2c1OCCO2 (centres unmarked) [Compound 8, 4-(Cyclopentanon-2-yl)-4-(8-methoxy-1,4-benzodioxan-5-yl)-cyclohexanecarboxylic Acid]
4 | – | – | ≥ 99 | CCOC(=O)C=CC1(c2ccc(OC)c3c2OCCO3)CCC(=O)CC1 [Compound 13, Ethyl 3-[1-(8-methoxy-1,4-benzodioxan-5-yl)-4-oxocyclohexyl]acrylate]
